“Also recorded” adds a separate entry of the source. Where two headings read alike, the source gives them in different places. Residues, ends and D or L forms follow the SMILES beside them. *: point of attachment. Orn(α-tetramethylguanidino) = CN(C)C(=N[C@@H](CCCN)C(=O)*)N(C)C Some results are limits rather than exact numbers.

The nature of data set [1]: EDTA plasma of CD-1 mice after continuous sc infusion of Api137 (12.8 mg/kg/h) using ALZET osmotic pumps. The note with it: up to 24 h.
A further data set concerns CD-1 mice. Briefly: Tolerance study after intravenous injection in mice. The note with it: female CD-1 mice, n = 2. Type of data set: in vivo, mouse. The procedure:
(§1) Eight female CD-1 mice (22–30 g, n = 2) or four SD rats (218–260 g, n = 1) were treated iv (10 and 5 mL/kg, respectively) with Api137 formulated in 0.9% saline (TEKnova, Hollister, CA, United States) at concentrations of 5, 10, 25, and 50 mg/kg body weight and their behavior monitored for 24 h.

For data set [2] the following is noted: mouse, in vivo, cited from earlier work. The source says: In particular, cationic proline-rich antimicrobial peptides (PrAMPs) belong to the second group binding to the negatively charged bacteria surface by electrostatic interactions through basic amino acid residues. Proline residues account for extended, partially polyproline helix II-like secondary structures that most likely support free penetration through the outer membrane of Gram-negative bacteria. PrAMPs accumulate in the periplasmic space where the transporters SbmA and MdtM actively translocate them into the cells ([Mattiuzzo et al., 2007]; [Runti et al., 2013]; [Krizsan et al., 2015a]). ... || Severe multi-drug resistant infections are treated under medical supervision in the hospital using intravenous injection or infusion as preferred administration route for rapid and controlled achievement of efficacious drug plasma levels. […] Unexpectedly, the maximal plasma levels of 6.8 mg/L obtai ...

The subject of the next data set is SD rats. The data set can be described thus: Tolerance study after intravenous injection in rats. Type of data set: in vivo, rat. The conditions noted are these: monitored 24 h, n = 1. Here is the method:
as §1

Another data set can be described thus: in vivo. The arrangement: species or system Sprague Dawley rats. The note with it: Sprague Dawley, rat. The procedure: (§2) Api137 dissolved in 0.9% saline was injected iv or sc in mice (18–26 g, total = 51) and rats (204–248 g, total = 12) at a dose volume of 10 and 5 mL/kg BW, respectively, according to the dosing scheme (Supplementary Figures 1, 2). Three mice per dose and time point were euthanized by carbon dioxide inhalation and blood was collected via cardiac puncture into K2-EDTA Microtainer® tubes (Becton Dickinson and Company, BD, Franklin Lakes, NJ, United States). Additionally, blood was collected via saphenous vein puncture from three rats into identic tubes.
(§3) Api137 was quantified in EDTA plasma samples using reversed-phase chromatography (RP-HPLC) coupled to electrospray ionization mass spectrometry (ESI-MS/MS) at TNO Triskelion (Zeist, Netherlands). Analog Api134 was used as internal standard. Briefly, internal standard solution (10 μL, 5 mg/L) was added to a plasma sample (50 μL) and mixed with aqueous phosphoric acid (50 μL; 4%, v/v). Solid phase extraction was performed on a WCX micro-elution plate (Waters Corporation, Milford, MA, United States) with a final elution using aqueous acetonitrile (75%, v/v) containing 1% (v/v) trifluoroacetic acid. Extracts were analyzed on an Acquity C18 BEH column (2.1 mm internal diameter, 10 cm length, 1.7 μm particle size; Waters) using an Acquity UPLC system coupled online to a XEVO TQS mass spectrometer (Waters; for details see Supplementary Material). Alternatively, Api137 and metabolites 1–16 and 1–17 were quantified for selected samples in house as reported recently ([Schmidt et al., 2017]).
(§4) 1. Quantitative analysis of Api137 in plasma using a LC-MS/ MS method
(§5) Chemicals were obtained from the following manufacturers. Biosolve B.V. (Valkenswaard, The Netherlands): acetonitrile, formic acid, methanol (all ULC/MS grade); Sigma-Aldrich (St.
(§6) Louis, MO, USA): phosphoric acid (Fluka, 85%), trifluoroacetic acid (Reagent Plus, 99%); Merck KGaA (Darmstadt, Germany): ammonia (25%); water (Milli -Q® Advantage A10 Water […]
(§7) Internal standard solution (10 µL, Api134, 5 µg/mL) was added to a plasma sample (50 µL or 25 µL) and mixed with aqueous phosphoric acid (50 µL or 75 µL; 4%, v/v). Solid phase extraction (SPE) was performed on a WCX micro -elution plate (2 mg, Waters):
(§8) Conditioning I Methanol 200
(§9) Conditioning II Purified water 200
(§10) Sample application Diluted plasma sample 110
(§11) Wash step I Aqueous ammonia (5%, v/v) 200
(§12) Wash step II Aqueous acetonitrile (20%, v/v) 200
(§13) Elution I Aqueous acetonitrile (75%, v/v) including trifluoroacetic 50 […]
(§14) Elution II Aqueous acetonitrile (75%, v/v) including trifluoroacetic 50 […]
(§15) Water (100 µL) was added to the eluate and the plate was covered to avoid avaporation. The plate was shaken (10 min, plate shaker) and the extract was analysed using RPC-MS/MS.
(§16) (1 picture or pasted object on this page, not shown here)
(§17) 1.2.RPC-ESI-MS/MS equipment and conditions
(§18) Equipment/Parameter Value
(§19) UPLC system Acquity (Micromass Waters)
(§20) UPLC column temperature 50 °C
(§21) Autosampler temperature 10 °C […]
(§22) Mobile phase A 1% formic acid in water
(§23) Mobile phase B 1% formic acid in acetonitrile
(§24) Strong Wash [Volume] Methanol/Water/Formic acid (80/20/0.1) [200 µL]
(§25) Weak wash [Volume] Acetonitrile/Water/Trifluoroacetic acid (40/60/0.25) [600 µL]
(§26) Mass spectrometer XEVO TQS (Micromass Waters)
(§27) Ionization mode Electrospray ionization (positive mode)
(§28) Source temperature 150 °C
(§29) Desolvation temperature 600 °C
(§30) Desolvation gas flow 1000 L/h
(§31) Time [min] Mobile phase B [%]
(§32) 1.4.Conditions for multiple reaction monitoring
(§33) Peptide Precursor ion (m/z) Product ion (m/z) Cone [V] Collision energy [eV]
(§34) The peak area of the peptides was obtained using MassLynx 4.1 software (Micromass Waters). The peak a rea ratio (PAR) of peptide Api137 and the internal standard Api134 (Y-axis) was plotted versus the actual peptide concentration (x -axis) to construct a calibration […]
(§35) Supplementary Figure 1 : Dosing schemes and time -points of blood collection for pharmacokinetic analysis of three mice per dose group and time -point. […]

Data set [3] can be described thus: Pharmacokinetics: Api137 plasma levels after iv or sc injection in mice. Also noted: species or system CD-1 mice. The conditions noted are these: in vivo. Here is the method: as §2, §3, §4, §5, §6, §7, §8, §9, §10, §11, §12, §13, §14, §15, §16, §17, §18, §19, §20, §21, §22, §23, §24, §25, §26, §27, §28, §29, §30, §31, §32, §33, §34, §35

The test system of another data set is mouse. The conditions noted are these: in vivo, ip, 10 mg/kg; cited from earlier work. The source says: In particular, cationic proline-rich antimicrobial peptides (PrAMPs) belong to the second group binding to the negatively charged bacteria surface by electrostatic interactions through basic amino acid residues. Proline residues account for extended, partially polyproline helix II-like secondary structures that most likely support free penetration through the outer membrane of Gram-negative bacteria. PrAMPs accumulate in the periplasmic space where the transporters SbmA and MdtM actively translocate them into the cells ([Mattiuzzo et al., 2007]; [Runti et al., 2013]; [Krizsan et al., 2015a]). ...

In data set [4] the test system is Escherichia coli ATCC 25922. Briefly: Lethal murine intraperitoneal sepsis (infection) model. In kind it is in vivo, CD-1 mice. The conditions noted are these: control, iv 0.25 mg/kg at 1 h post infection, n = 6. Here is the method:
Escherichia coli ATCC 25922 was obtained from American Type Culture Collection (Manassas, VA, United States). Cells were grown overnight on solid agar, suspended in saline and adjusted to an OD of 0.1 at 625 nm. The suspension was further diluted in 5% hog gastric mucin (Sigma-Aldrich Corporation, St. Louis, MO, United States) and final inoculums between 4.8 × 10^5 and 2.0 × 10^6 colony forming units (cfu) per mouse were injected ip (500 μL). Api137 and levofloxacin was dissolved in sterile saline and sterile water, respectively, and were administered iv (5 mL/kg) into the tail vein or sc (10 mL/kg) into the back. Alternatively, an hour post infection ALZET® osmotic pumps were implanted under isoflurane anesthesia (see above). After 24 h, pumps were exchanged once and finally removed after 48 h.
The log-rank (Mantel-Cox) test was used for comparison of the survival curves and dose-response curves were fitted with the “dose-response log(inhibitor) vs. normalized response – variable slope” function with “least squares fit” using GraphPad Prism 5.02.

The mark [5] stands for this setting: CD-1, mouse, iv, 5 mg/kg, Plasma level.
[6] abbreviates: CD-1, mouse, iv, 10 mg/kg, Plasma level.
Setting [7] is: CD-1, mouse, iv, 20 mg/kg, Plasma level.
Where [8] appears, read: CD-1, mouse, sc, 20 mg/kg, Plasma level.

Take Gu-ONNRPVYIPRPRPPHPRL-OH: in data set [1], the fragment found entry was “Api137(1-17), major, 1 h; also recorded: Api137(1-16), major, 1 h”.

Take `CC[C@H](C)[C@H](NC(=O)[C@H](Cc1ccc(O)cc1)NC(=O)[C@@H](NC(=O)[C@@H]1CCCN1C(=O)[C@H](CCCNC(=N)N)NC(=O)[C@H](CC(N)=O)NC(=O)[C@H](CC(N)=O)NC(=O)[C@H](CCCN)N=C(N(C)C)N(C)C)C(C)C)C(=O)N1CCC[C@H]1C(=O)N[C@@H](CCCNC(=N)N)C(=O)N1CCC[C@H]1C(=O)N[C@@H](CCCNC(=N)N)C(=O)N1CCC[C@H]1C(=O)N1CCC[C@H]1C(=O)N[C@@H](Cc1c[nH]cn1)C(=O)N1CCC[C@H]1C(=O)N[C@@H](CCCNC(=N)N)C(=O)N[C@@H](CC(C)C)C(=O)O` [Api137] ({Orn(α-tetramethylguanidino)}-NNRPVYIPRPRPPHPRL-OH): the “Tolerance after iv injection” value with CD-1 mice (5 mg/kg iv in 0.9% saline, monitored 24 h) was “No adverse effects were observed”; in the data set on CD-1 mice (50 mg/kg iv) it was “experienced convulsion and low blood pressure immediately after dosing and died within 1 min”; in the data set on CD-1 mice (10 and 20 mg/kg iv, monitored 24 h), “lethargic within minutes directly after dosing with piloerection for the next 45 min but recovered to normal limits within 1 h”; in the data set on SD rats (5 mg/kg iv), “No adverse effects were observed”; in the data set with SD rats (10 to 50 mg/kg iv), “experienced labored breathing and lethargy but recovered to normal limits within 5 h post injection”. In addition, the Plasma level was 200 ng/mL in data set [2] (ip, 5 mg/kg) and 5 to 20 ng/mL in data set [3] (CD-1, mouse, iv). Moreover, the Maximal plasma level in data set [2] (ip, 20 mg/kg) is given as 3.6 mg/L. For the same molecule, the “Plasma level (maximal)” value in data set [2] (iv, 5 mg/kg) was 400 ng/mL. Also, the level at 0.5 h is 160 to 210 ng/mL in “in vivo” (iv); 30 ng/mL in the data set “in vivo” (sc, 5 mg/kg); 80 ng/mL in the data set “in vivo” (sc, 10 mg/kg); 250 ng/mL in the data set “in vivo” (sc, 20 mg/kg); around 500 ng/mL in data set [3] (CD-1, mouse, 20 mg/kg, Plasma level after 30 min); 90 ng/mL in data set [3] (setting [5]). Also, the results for the level at 0.5 h in data set [3] (setting [6]), in data set [3] (setting [7]) and in data set [3] (setting [8]) were 300 ng/mL, 440 ng/mL and 300 ng/mL, respectively. The level at 5 min in “in vivo” (sc, 5 mg/kg) came to 100 ng/mL; in the data set “in vivo” (sc, 10 mg/kg) it was 400 ng/mL; in “in vivo” (sc, 20 mg/kg), 800 ng/mL; in data set [3] (setting [5]) it was 6800 ng/mL; in data set [3] (setting [6]), 12900 ng/mL; in data set [3] (setting [7]), 23200 ng/mL. Further, the level at 5 min in data set [3] (CD-1, mouse, sc, 5 mg/kg, Plasma level) is 400 ng/mL; in data set [3] (CD-1, mouse, sc, 10 mg/kg, Plasma level) it was 900 ng/mL; in data set [3] (setting [8]), 2900 ng/mL. Further, the level at 1 h came to 20 ng/mL in “in vivo” (sc, 20 mg/kg) and 14 ng/mL in data set [3] (setting [8]). Also, the level at 245 min in data set [3] (CD-1, mouse, iv, 5 mg/kg, Plasma concentration) came out at 10100 ng/mL; in data set [3] (CD-1, mouse, iv, 10 mg/kg, Plasma concentration) it was 10500 ng/mL; in data set [3] (CD-1, mouse, iv, 20 mg/kg, Plasma concentration) it was 22900 ng/mL; in data set [3] (setting [7]), 12500 ng/mL. The level at 4.5 h came to 160 ng/mL in data set [3] (setting [6]) and 90 ng/mL in data set [3] (setting [7]). This molecule yielded a level at 125 min in data set [3] (setting [7]) of 15400 ng/mL. For the same molecule, in data set [3] (mouse, iv, 20 mg/kg), the half-life (commonly the time in which the quantity being followed falls by half) is below 30 min. Moreover, the “Immune response (anti-Api137 IgG antibodies)” value with mouse is reported as “Only one mouse showed a very weak immune response with a very low level of anti-Api137 IgG antibodies”.

For the molecule `C[C@H]1COc2c(N3CCN(C)CC3)c(F)cc3c(=O)c(C(=O)O)cn1c23` [levofloxacin], the “Efficacy compared with Api137” value in data set [4] is reported as “more efficacious”.

Source of the values: paper PMC6783563 (Frontiers in Microbiology, 2019).
